{"source": "patent US12240853B2", "about": "“Compounds useful in HIV therapy” (GlaxoSmithKline Intellectual Property (No.2) Limited, priority 2019, dated 2025)", "key": {"[1]": {"tested_on": "HIV pseudotyped virus (NL4-3 provirus, luciferase reporter), WT", "assay": "PSV (pseudotyped virus) assay, WT", "conditions": "Human immunodeficiency virus 1, NL43, 72 h, read-out: WT IC50", "procedure": "A pseudotyped virus assay (PSV) was used to assess the potency of the HIV inhibitor.\nThe PSV assay was performed by using U373 cells stably transformed to express human CD4, the primary receptor for HIV entry and either human CXCR4 or human CCR5 which are the co-receptors required for HIV entry as target cells for infection. […] This dose-range was applied to U373 cells and the pre-made pseudotyped virus added. The amount of luciferase signal produced after 3 days of culture was used to reflect the level of pseudotyped virus infection. An IC50, or the concentration of inhibitor required to reduce PSV infection by 50% from the infection containing no inhibitor was calculated. […] IC50 values were determined from a 10 point dose response curve using 3-4-fold serial dilution for each compound, which spans a concentration range>1000 fold.\nThese values are plotted against the molar compound concentrations using the standard four parameter logistic equation: y=((Vmax*x^n)/(K^n+x^n))+Y2"}, "[2]": {"tested_on": "HIV pseudotyped virus, M184V", "assay_type": "cell-based", "conditions": "U373 cells (CD4, CXCR4 or CCR5), luciferase signal after 3 days"}}}
{"smiles": "C#C[C@]1(COC(=O)CCCC)O[C@@H](n2cnc3c(N)nc(F)nc32)C[C@@H]1OC(=O)CCCC", "note": "[Example 23, (2R,3S,5R)-5-(6-amino-2-fluoro-9H-purin-9-yl)-2-ethynyl-2-((pentanoyloxy)methyl)tetrahydrofuran-3-yl Pentanoate]", "values": [{"measurement": "IC50", "setting": "[1]", "result": 11, "unit": "nM"}, {"measurement": "IC50", "setting": "[2]", "result": 68, "unit": "nM"}]}
{"smiles": "C#C[C@]1(COC(=O)CNC(=O)CCCCCCCCCCCCC)O[C@@H](n2cnc3c(N)nc(F)nc32)C[C@@H]1O", "note": "[Example 35, ((2R,3S,5R)-5-(6-amino-2-fluoro-9H-purin-9-yl)-2-ethynyl-3-hydroxytetrahydrofuran-2-yl)methyl Tetradecanoylglycinate]", "values": [{"measurement": "IC50", "setting": "[1]", "result": 1, "unit": "nM"}, {"measurement": "IC50", "setting": "[2]", "result": 9, "unit": "nM"}]}
{"smiles": "C#C[C@@]12COC(=O)CCCCCCCCCCCCC(=O)O[C@H]1C[C@H](n1cnc3c(N)nc(F)nc31)O2", "note": "[Example 33, (2R,3aS,20aR)-2-(6-amino-2-fluoro-9H-purin-9-yl)-20a-ethynylhexadecahydro-2H-furo[3,2-b][1,5]dioxacyclononadecine-5,18-dione]", "values": [{"measurement": "IC50", "setting": "[1]", "result": 17, "unit": "nM"}, {"measurement": "IC50", "setting": "[2]", "result": 86, "unit": "nM"}]}
{"smiles": "C#C[C@]1(COC(=O)CCCCCCCCCCCCC)O[C@@H](n2cnc3c(N)nc(F)nc32)C[C@@H]1OC(=O)CCCCCCCCCCCCC", "note": "[Example 17, (2R,3S,5R)-5-(6-amino-2-fluoro-9H-purin-9-yl)-2-ethynyl-2-((tetradecanoyloxy)methyl)tetrahydrofuran-3-yl Tetradecanoate]", "values": [{"measurement": "IC50", "setting": "[1]", "result": 1740, "unit": "nM"}, {"measurement": "IC50", "setting": "[2]", "result": 10300, "unit": "nM"}]}
{"smiles": "C#C[C@]1(COC(=O)COCCOCCCC)O[C@@H](n2cnc3c(N)nc(F)nc32)C[C@@H]1O", "note": "[Example 8, ((2R,3S,5R)-5-(6-amino-2-fluoro-9H-purin-9-yl)-2-ethynyl-3-hydroxytetrahydrofuran-2-yl)methyl 2-(2-butoxyethoxy)acetate]", "values": [{"measurement": "IC50", "setting": "[1]", "result": 2, "unit": "nM"}, {"measurement": "IC50", "setting": "[2]", "result": 11, "unit": "nM"}]}
{"smiles": "C#C[C@]1(COC(=O)CNC(=O)CCCCCC)O[C@@H](n2cnc3c(N)nc(F)nc32)C[C@@H]1O", "note": "[Example 34, ((2R,3S,5R)-5-(6-amino-2-fluoro-9H-purin-9-yl)-2-ethynyl-3-hydroxytetrahydrofuran-2-yl)methyl Heptanoylglycinate]", "values": [{"measurement": "IC50", "setting": "[1]", "result": 4, "unit": "nM"}, {"measurement": "IC50", "setting": "[2]", "result": 25, "unit": "nM"}]}
{"smiles": "C#C[C@]1(COC(=O)c2ccccc2)O[C@@H](n2cnc3c(N)nc(F)nc32)C[C@@H]1O", "note": "[Example 2, ((2R,3S,5R)-5-(6-amino-2-fluoro-9H-purin-9-yl)-2-ethynyl-3-hydroxytetrahydrofuran-2-yl)methyl Benzoate]", "values": [{"measurement": "IC50", "setting": "[1]", "result": 3, "unit": "nM"}, {"measurement": "IC50", "setting": "[2]", "result": 13, "unit": "nM"}]}
{"smiles": "C#C[C@]1(COC(=O)CCCC(=O)OC(COC(=O)CCCCCCCCCCCCC)COC(=O)CCCCCCCCCCCCC)O[C@@H](n2cnc3c(N)nc(F)nc32)C[C@@H]1O", "note": "[Example 13, ((2R,3S,5R)-5-(6-amino-2-fluoro-9H-purin-9-yl)-2-ethynyl-3-hydroxytetrahydrofuran-2-yl)methyl 1,3-bis(tetradecanoyloxy)propan-2-yl) glutarate]", "values": [{"measurement": "IC50", "setting": "[1]", "result": 508, "unit": "nM"}, {"measurement": "IC50", "setting": "[2]", "result": 3610, "unit": "nM"}]}
{"smiles": "C#C[C@]1(COC(=O)CCCC)O[C@@H](n2cnc3c(NC(=O)CCCCCCCCCCC)nc(F)nc32)C[C@@H]1O", "note": "[Example 28, ((2R,3S,5R)-5-(6-dodecanamido-2-fluoro-9H-purin-9-yl)-2-ethynyl-3-hydroxytetrahydrofuran-2-yl)methyl Pentanoate]", "values": [{"measurement": "IC50", "setting": "[1]", "result": 6, "unit": "nM"}, {"measurement": "IC50", "setting": "[2]", "result": 26, "unit": "nM"}]}
{"smiles": "C#C[C@]1(COC(=O)CCCC(=O)OC(COC(=O)CCCCCC)COC(=O)CCCCCC)O[C@@H](n2cnc3c(N)nc(F)nc32)C[C@@H]1O", "note": "[Example 12, ((2R,3S,5R)-5-(6-amino-2-fluoro-9H-purin-9-yl)-2-ethynyl-3-hydroxytetrahydrofuran-2-yl)methyl (1,3-bis(heptanoyloxy)propan-2-yl) glutarate]", "values": [{"measurement": "IC50", "setting": "[1]", "result": 34, "unit": "nM"}, {"measurement": "IC50", "setting": "[2]", "result": 151, "unit": "nM"}]}
{"smiles": "C#C[C@]1(COC(=O)CCCC)O[C@@H](n2cnc3c(N)nc(F)nc32)C[C@@H]1OC(=O)CC", "note": "[Example 24, ((2R,3S,5R)-5-(6-amino-2-fluoro-9H-purin-9-yl)-2-ethynyl-3-(propionyloxy)tetrahydrofuran-2-yl)methyl Pentanoate]", "values": [{"measurement": "IC50", "setting": "[1]", "result": 66, "unit": "nM"}, {"measurement": "IC50", "setting": "[2]", "result": 351, "unit": "nM"}]}
{"smiles": "C#C[C@]1(COC(=O)CCCC)O[C@@H](n2cnc3c(N)nc(F)nc32)C[C@@H]1OC(=O)CCCCCCCCCC", "note": "[Example 21, (2R,3S,5R)-5-(6-amino-2-fluoro-9H-purin-9-yl)-2-ethynyl-2-((pentanoyloxy)methyl)tetrahydrofuran-3-yl Undecanoate]", "values": [{"measurement": "IC50", "setting": "[1]", "result": 7, "unit": "nM"}, {"measurement": "IC50", "setting": "[2]", "result": 44, "unit": "nM"}]}
{"smiles": "C#C[C@]1(COC(=O)CCCCCCCCC)O[C@@H](n2cnc3c(N)nc(F)nc32)C[C@@H]1OC(=O)OCC", "note": "[Example 15, ((2R,3S,5R)-5-(6-amino-2-fluoro-9H-purin-9-yl)-3-((ethoxycarbonyl)oxy)-2-ethynyltetrahydrofuran-2-yl)methyl Decanoate]", "values": [{"measurement": "IC50", "setting": "[1]", "result": 77, "unit": "nM"}, {"measurement": "IC50", "setting": "[2]", "result": 328, "unit": "nM"}]}
{"smiles": "C#C[C@]1(COC(=O)C(CCC)CCC)O[C@@H](n2cnc3c(N)nc(F)nc32)C[C@@H]1OC(=O)CCC", "note": "[Example 30, ((2R,3S,5R)-5-(6-amino-2-fluoro-9H-purin-9-yl)-3-(butyryloxy)-2-ethynyltetrahydrofuran-2-yl)methyl 2-propylpentanoate]", "values": [{"measurement": "IC50", "setting": "[1]", "result": 334, "unit": "nM"}, {"measurement": "IC50", "setting": "[2]", "result": 1500, "unit": "nM"}]}
{"smiles": "C#C[C@]1(COC(=O)CCCC)O[C@@H](n2cnc3c(N)nc(F)nc32)C[C@@H]1OC(=O)CCCCCCCC", "note": "[Example 22, (2R,3S,5R)-5-(6-amino-2-fluoro-9H-purin-9-yl)-2-ethynyl-2-((pentanoyloxy)methyl)tetrahydrofuran-3-yl Nonanoate]", "values": [{"measurement": "IC50", "setting": "[1]", "result": 7, "unit": "nM"}, {"measurement": "IC50", "setting": "[2]", "result": 35, "unit": "nM"}]}
{"smiles": "C#C[C@]1(COC(=O)[C@H](C)NC(=O)CCCCCC)O[C@@H](n2cnc3c(N)nc(F)nc32)C[C@@H]1O", "note": "[Example 36, ((2R,3S,5R)-5-(6-amino-2-fluoro-9H-purin-9-yl)-2-ethynyl-3-hydroxytetrahydrofuran-2-yl)methyl heptanoyl-L-alaninate]", "values": [{"measurement": "IC50", "setting": "[1]", "result": 4, "unit": "nM"}, {"measurement": "IC50", "setting": "[2]", "result": 21, "unit": "nM"}]}
{"smiles": "C#C[C@]1(COC(=O)CCCC)O[C@@H](n2cnc3c(NC(=O)CCCCCCC)nc(F)nc32)C[C@@H]1O", "note": "[Example 26, ((2R,3S,5R)-2-ethynyl-5-(2-fluoro-6-octanamido-9H-purin-9-yl)-3-hydroxytetrahydrofuran-2-yl)methyl Pentanoate]", "values": [{"measurement": "IC50", "setting": "[1]", "result": 7, "unit": "nM"}, {"measurement": "IC50", "setting": "[2]", "result": 28, "unit": "nM"}]}
{"smiles": "C#C[C@]1(COC(=O)CCCC)O[C@@H](n2cnc3c(NC(=O)CCC)nc(F)nc32)C[C@@H]1O", "note": "[Example 25, ((2R,3S,5R)-5-(6-butyramido-2-fluoro-9H-purin-9-yl)-2-ethynyl-3-hydroxytetrahydrofuran-2-yl)methyl Pentanoate]", "values": [{"measurement": "IC50", "setting": "[1]", "result": 21, "unit": "nM"}, {"measurement": "IC50", "setting": "[2]", "result": 186, "unit": "nM"}]}
{"smiles": "C#C[C@]1(COC(=O)CCCC)O[C@@H](n2cnc3c(N)nc(F)nc32)C[C@@H]1OC(=O)CCCCCCCCCCCC", "note": "[Example 19, (2R,3S,5R)-5-(6-amino-2-fluoro-9H-purin-9-yl)-2-ethynyl-2-((pentanoyloxy)methyl)tetrahydrofuran-3-yl Tridecanoate]", "values": [{"measurement": "IC50", "setting": "[1]", "result": 18, "unit": "nM"}, {"measurement": "IC50", "setting": "[2]", "result": 87, "unit": "nM"}]}
{"smiles": "C#C[C@]1(COC(=O)[C@H]2CC[C@H](CCCCC)CC2)O[C@@H](n2cnc3c(N)nc(F)nc32)C[C@@H]1O", "note": "[Example 5, ((2R,3S,5R)-5-(6-amino-2-fluoro-9H-purin-9-yl)-2-ethynyl-3-hydroxytetrahydrofuran-2-yl)methyl trans-4-pentylcyclohexane-1-carboxylate]", "values": [{"measurement": "IC50", "setting": "[1]", "result": 1, "unit": "nM"}, {"measurement": "IC50", "setting": "[2]", "result": 7, "unit": "nM"}]}
